Assay results as given in the supplement of paper PMC11451515.

Tests used:
Conditions in all cases: 48 h
[1] = system: NOMO1; assay: cell viability relative to DMSO control; higher = less cytotoxic
How it was run: (§1)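 Viability is expressed as a percentage of DMSO wells within each plate, and cell-free wells serve as background. Seeding densities in the 1536-well plates (5 μl) were 500 cells/well for NOMO1 or SEM leukemia cells and 1000 cells/well for P12-Ichikawa. Each line was adapted for at least four passages in each medium. Library compounds in DMSO were pin-dosed at 47 μM to 0.79 nM (11 points, threefold), and CellTiter-Glo One luminescence was read after 48 h at 37°C.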

[2] = system: P12-Ichikawa; assay: as above
How it was run: as §1

[3] = system: SEM cells; assay: as above
How it was run: as §1

[4] = system: NOMO1; assay: AUC of viability dose-response curve (% viability x log10 dose units); higher = less sensitive
How it was run: (§2)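 In 1536-well plates, leukemia cells adapted to each medium (500 or 1000 cells/well) were exposed for 48 h at 37°C to library compounds in DMSO across 11 threefold doses, 47 μM down to 0.79 nM. Viability was read by CellTiter-Glo One luminescence and normalised per plate to DMSO and cell-free wells. A four-parameter log-logistic fit over log10 doses was integrated by trapezoidal rule. This yielded the area under the curve, with over-full-viability curves scaled and quality-control failures dropped.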

[5] = system: P12-Ichikawa; assay: as above
How it was run: as §2

[6] = system: SEM cells; assay: as above
How it was run: as §2

N#Cc1ccc(Oc2ccc3c(c2)COB3O)cc1
cell viability [%]
Conditions | [1] | [2] | [3]
HPLM + 10% dialyzed FBS, 0.000781 µM | – | 112 | 111
HPLM + 10% dialyzed FBS, 0.00234 µM | – | 119 | 122
HPLM + 10% dialyzed FBS, 0.00702 µM | – | 123 | 111
HPLM + 10% dialyzed FBS, 0.0211 µM | – | 90.6 | 104
HPLM + 10% dialyzed FBS, 0.0632 µM | – | 129 | 124
HPLM + 10% dialyzed FBS, 0.19 µM | – | 125 | 114
HPLM + 10% dialyzed FBS, 0.569 µM | – | 125 | 126
HPLM + 10% dialyzed FBS, 1.71 µM | – | 102 | 114
HPLM + 10% dialyzed FBS, 5.12 µM | – | 81.5 | 117
HPLM + 10% dialyzed FBS, 15.4 µM | – | 80.6 | 105
HPLM + 10% dialyzed FBS, 46.1 µM | – | 33.9 | 46.4
RPMI 5 mM glucose + 10% FBS, 0.000781 µM | 122 | 117 | 105
RPMI 5 mM glucose + 10% FBS, 0.00234 µM | 132 | 120 | 108
RPMI 5 mM glucose + 10% FBS, 0.00702 µM | 119 | 127 | 112
RPMI 5 mM glucose + 10% FBS, 0.0211 µM | 120 | 81.7 | 92.3
RPMI 5 mM glucose + 10% FBS, 0.0632 µM | 150 | 135 | 122
RPMI 5 mM glucose + 10% FBS, 0.19 µM | 137 | 125 | 114
RPMI 5 mM glucose + 10% FBS, 0.569 µM | 144 | 139 | 115
RPMI 5 mM glucose + 10% FBS, 1.71 µM | 126 | 138 | 133
RPMI 5 mM glucose + 10% FBS, 5.12 µM | 133 | 123 | 120
RPMI 5 mM glucose + 10% FBS, 15.4 µM | 129 | 124 | 129
RPMI 5 mM glucose + 10% FBS, 46.1 µM | 57.3 | 53.1 | 26.9
RPMI 5 mM glucose + 10% dialyzed FBS, 0.000781 µM | – | 119 | 115
RPMI 5 mM glucose + 10% dialyzed FBS, 0.00234 µM | – | 117 | 127
RPMI 5 mM glucose + 10% dialyzed FBS, 0.00702 µM | – | 113 | 119
RPMI 5 mM glucose + 10% dialyzed FBS, 0.0211 µM | – | 83.9 | 85
RPMI 5 mM glucose + 10% dialyzed FBS, 0.0632 µM | – | 132 | 126
RPMI 5 mM glucose + 10% dialyzed FBS, 0.19 µM | – | 120 | 107
RPMI 5 mM glucose + 10% dialyzed FBS, 0.569 µM | – | 135 | 120
RPMI 5 mM glucose + 10% dialyzed FBS, 1.71 µM | – | 139 | 129
RPMI 5 mM glucose + 10% dialyzed FBS, 5.12 µM | – | 130 | 97.3
RPMI 5 mM glucose + 10% dialyzed FBS, 15.4 µM | – | 124 | 124
RPMI 5 mM glucose + 10% dialyzed FBS, 46.1 µM | – | 38.6 | 38.4

AUC of viability dose-response curve
Conditions | [4] | [5] | [6]
HPLM + 10% dialyzed FBS | 413 | 425 | 458
RPMI 5 mM glucose + 10% FBS | 463 | 463 | 458
RPMI 5 mM glucose + 10% dialyzed FBS | 466 | 460 | 461

CCOc1cc2ncc(C#N)c(Nc3ccc(OCc4ccccn4)c(Cl)c3)c2cc1NC(=O)/C=C/CN(C)C
cell viability [%]
Conditions | [1] | [2] | [3]
HPLM + 10% dialyzed FBS, 0.000781 µM | – | 116 | 109
HPLM + 10% dialyzed FBS, 0.00234 µM | – | 124 | 122
HPLM + 10% dialyzed FBS, 0.00702 µM | – | 122 | 126
HPLM + 10% dialyzed FBS, 0.0211 µM | – | 115 | 122
HPLM + 10% dialyzed FBS, 0.0632 µM | – | 117 | 111
HPLM + 10% dialyzed FBS, 0.19 µM | – | 115 | 107
HPLM + 10% dialyzed FBS, 0.569 µM | – | 62.5 | 19.4
HPLM + 10% dialyzed FBS, 1.71 µM | – | 6.67 | 9.21
HPLM + 10% dialyzed FBS, 5.12 µM | – | 4.65 | 7.03
HPLM + 10% dialyzed FBS, 15.4 µM | – | 4.41 | 6.73
HPLM + 10% dialyzed FBS, 46.1 µM | – | 3.56 | 4.72
RPMI 5 mM glucose + 10% FBS, 0.000781 µM | 119 | 111 | 87
RPMI 5 mM glucose + 10% FBS, 0.00234 µM | 109 | 125 | 95.4
RPMI 5 mM glucose + 10% FBS, 0.00702 µM | 114 | 120 | 83.4
RPMI 5 mM glucose + 10% FBS, 0.0211 µM | 105 | 118 | 80.8
RPMI 5 mM glucose + 10% FBS, 0.0632 µM | 112 | 120 | 79.7
RPMI 5 mM glucose + 10% FBS, 0.19 µM | 124 | 121 | 31.9
RPMI 5 mM glucose + 10% FBS, 0.569 µM | 49.7 | 121 | 7.35
RPMI 5 mM glucose + 10% FBS, 1.71 µM | 20.8 | 11.3 | 5.75
RPMI 5 mM glucose + 10% FBS, 5.12 µM | 13.6 | 6.84 | 5.48
RPMI 5 mM glucose + 10% FBS, 15.4 µM | 11.2 | 5.28 | 4.73
RPMI 5 mM glucose + 10% FBS, 46.1 µM | 8.95 | 5.4 | 3.12
RPMI 5 mM glucose + 10% dialyzed FBS, 0.000781 µM | 116 | 119 | 119
RPMI 5 mM glucose + 10% dialyzed FBS, 0.00234 µM | 111 | 130 | 133
RPMI 5 mM glucose + 10% dialyzed FBS, 0.00702 µM | 103 | 121 | 117
RPMI 5 mM glucose + 10% dialyzed FBS, 0.0211 µM | 109 | 122 | 116
RPMI 5 mM glucose + 10% dialyzed FBS, 0.0632 µM | 117 | 119 | 121
RPMI 5 mM glucose + 10% dialyzed FBS, 0.19 µM | 113 | 118 | 95.9
RPMI 5 mM glucose + 10% dialyzed FBS, 0.569 µM | 83.9 | 122 | 16.9
RPMI 5 mM glucose + 10% dialyzed FBS, 1.71 µM | 36.2 | 13.5 | 8.13
RPMI 5 mM glucose + 10% dialyzed FBS, 5.12 µM | 18.3 | 7.04 | 6.73
RPMI 5 mM glucose + 10% dialyzed FBS, 15.4 µM | 13 | 5.08 | 6.47
RPMI 5 mM glucose + 10% dialyzed FBS, 46.1 µM | 11.5 | 4.99 | 4.68

AUC of viability dose-response curve
Conditions | [4] | [5] | [6]
HPLM + 10% dialyzed FBS | 279 | 293 | 276
RPMI 5 mM glucose + 10% FBS | 303 | 320 | 209
RPMI 5 mM glucose + 10% dialyzed FBS | 328 | 321 | 268
